Results from patent US9073835B2, “N-acylthiourea and N-acylurea inhibitors of the Hedgehog protein signalling pathway” (Centre National De La Recherche Scientifique, priority 2008, dated 2015).

Test system: Hedgehog protein signaling pathway
Assay: Inhibition of SAG-induced alkaline phosphatase activity (differentiation) in C3H10T1/2 cells
Type: cell-based
Settings: Mus musculus; for inhibition at 10 µM: C3H 10T1/2, 10 μM test compound, percentage of alkaline phosphatase activity induced by SAG; for IC50: C3H 10T1/2, after induction by 0.1 μM SAG
Experimental: The effect of compounds with formula (I) as claimed in the invention on inhibition of the Hedgehog protein signaling pathway was determined by analysis of differentiation in the pluripotent fibroblast cell line C3H10T1/2 after activation of this pathway in these cells using a synthetic activator: SAG.
The compounds with formula (I) to be tested were dissolved in dimethylsulfoxide to a concentration of 10 mM, then stored at a temperature of −20° C. until use.
The pluripotent fibroblast cell line C3H10T1/2 (ATCC) was cultivated under the conditions recommended by the ATCC. These cells were activated using 0.1 μM of SAG, employing the methods described by Chen et al., Proc. Natl. Acad. Sci. USA, 2002, 99, 14071 and Frank-Kamenetsky et al., J. Biol., 2002, 1, 10.
Activation with SAG provokes differentiation of the cell line and allows them to express alkaline phosphatase. It is then possible to measure the activity of the Hedgehog protein signaling pathway by measuring the alkaline phosphatase activity.
The C3H10T1/2 cells were plated onto 96-well plates at a density of […], 24 hours before addition of the test compounds in a concentration of 1 nM to 30 μM and in the presence of 0.1 μM of SAG using DMEM supplemented with 10% fetal calf serum as the culture medium. The tests were carried out in quadruplicate. The plates were then incubated for 5-6 days at a temperature of 37° C. in an atmosphere of 5% CO2. The cells were washed in a cold phosphate buffer (“Phosphate Buffer Serum”: PBS) then lysed by sonication at 4° C. in 50 μl of a solution containing 0.9% of NaCl and 0.2% of Triton X-100.
By way of comparison, the activity of a known inhibitor of the Hedgehog protein signaling pathway, CURIS 61 414, as described, for example, by Frank-Kamenetsky M. et al. (J. Biol., 2002, 1, 10), was tested under the same conditions as those used to test the various compounds with formula (I) as claimed in the invention.
The alkaline phosphatase activity measurement in the lysates obtained was then carried out using the method described by Pepinsky et al. (J. Biol. Chem., 1998, 273, 14037). After adding 100 μl of reaction buffer (200 mM Tris-HCl; pH 10.5; 0.4 M of 2-amino-2-methylpropanol and 8 mM of MgCl2) and 50 μl of substrate (4 mM of disodium p-nitrophenyl phosphate), the lysates were incubated at 37° C. for 30-60 min, then the optical density was read at a wavelength of 415 nm.

| IC50 [µM] | Structure (SMILES) | inhibition at 10 µM [%] |
| --- | --- | --- |
| 1 to 3 | COc1cc(C(=O)NC(=S)Nc2cccc(NC(=O)c3ccccc3Cl)c2)cc(OC)c1OC [Compound 2, N-[[[3-(2-chloro-benzoylamino)phenyl]amino]thioxomethyl]-3,4,5-methoxy-benzamide] | > 80 |
|  | COc1cc(C(=O)NC(=O)Nc2cccc(NC(=O)c3ccc(-c4ccccc4)cc3)c2)cc(OC)c1OC [Compound 7, N-[[[3-(4-phenyl-benzoylamino)phenyl]amino]oxomethyl]-3,4,5-methoxy-benzamide] | 20 to 80 |
| 1 to 3 | COc1cc(C(=O)NC(=S)Nc2ccc(Cl)c(C(=O)Nc3ccc(N(C)C)cc3)c2)cc(OC)c1OC [Compound 39] | > 80 |
|  | COc1cc(C(=O)NC(=O)Nc2cccc(NC(=O)c3ccccc3)c2)cc2c1OCO2 [Compound 30, N-[[[3-(benzoylamino)phenyl]amino]oxomethyl]-3,4-methylenedioxy-5-methoxy-benzamide] | 5 to 20 |
|  | COc1ccc(C(=O)NC(=O)Nc2cccc(NC(=O)c3ccccc3)c2)cc1 [Compound 49, N-[[[-3-(benzoylamino)phenyl]amino]oxomethyl]-4-methoxy-benzamide] | 20 to 80 |
| 1 to 3 | COc1ccc(C(=O)NC(=S)Nc2cccc(NC(=O)c3ccccc3)c2)c(OC)c1 [Compound 22, N-[[[3-(benzoylamino)phenyl]amino]thioxomethyl]-2,4-methoxy-benzamide] | 20 to 80 |
|  | COc1cc(C(=O)NC(=S)Nc2cc(Br)cc(C(=O)Nc3ccccc3)c2)cc(OC)c1OC [Compound 41] | 20 to 80 |
|  | COc1cc(C(=O)NC(=S)Nc2cccc(NC(=O)C(C)C)c2)cc(OC)c1OC [Compound 10, N-[[[3-(isopropoylcarboxylamino)phenyl]amino]thioxomethyl]-3,4,5-methoxy-benzamide] | 5 to 20 |
|  | COc1cc(C(=O)NC(=O)Nc2ccc(Cl)c(C(=O)Nc3ccccc3)c2)cc(OC)c1OC [Compound 44] | 20 to 80 |
|  | COc1cc(C(=O)NC(=O)Nc2cccc(NC(=O)Nc3ccc(-c4ccccc4)cc3)c2)cc(OC)c1OC [Compound 59, N-(3-(3-biphenyl-4-ylureido)phenylcarbamoyl)-3,4,5-trimethoxybenzamide] | > 80 |
| 1 to 3 | COc1cc(OC)c(C(=O)NC(=O)Nc2cccc(NC(=O)c3ccccc3)c2)cc1OC [Compound 48, N-[[[-3-(benzoylamino)phenyl]amino]oxomethyl]-2,4,5-methoxy-benzamide] | 20 to 80 |
| 1 to 3 | COc1cc(C(=O)NC(=S)Nc2cccc(NC(=O)Nc3ccccc3)c2)cc(OC)c1OC [Compound 51, 3,4,5-trimethoxy-N-(3-(3-phenylureido)phenylcarbamothioyl)-benzamide] | > 80 |
|  | COc1cc(C(=O)NC(=O)Nc2cccc(NC(=O)C(C)C)c2)cc(OC)c1OC [Compound 17] | > 80 |
|  | COc1cc(C(=O)NC(=S)Nc2ccc(F)c(NC(=O)c3ccccc3)c2)cc(OC)c1OC [Compound 24, N-[[[4-fluoro-3-(benzoylamino)phenyl]amino]thioxomethyl]-3,4,5-methoxy-benzamide] | > 80 |
|  | COc1cc(C(=O)NC(=S)Nc2cccc(NC(=O)c3ccco3)c2)cc(OC)c1OC [Compound 14, N-[[[3-(2-furoylamino)phenyl]amino]thioxomethyl]-3,4,5-methoxy-benzamide] | 20 to 80 |
| 1 to 3 | COc1cccc(C(=O)Nc2cccc(NC(=S)NC(=O)c3cc(OC)c(OC)c(OC)c3)c2)c1 [Compound 3, N-[[[3-(3-methoxy-benzoylamino)phenyl]amino]thioxomethyl]-3,4,5-methoxy-benzamide] | > 80 |
|  | COc1cc(C(=O)NC(=S)Nc2cccc(NC(=O)c3ccncc3)c2)cc(OC)c1OC [Compound 11, N-[[[3-(4-pyridocarboxylamino)phenyl]amino]thioxomethyl]-3,4,5-methoxy-benzamide] | > 80 |

| IC50 [µM] | Structure (SMILES) | inhibition at 10 µM [%] |
| --- | --- | --- |
|  | COc1cc(C(=O)NC(=S)Nc2ccc(C)c(NC(=O)c3ccccc3)c2)cc(OC)c1OC [Compound 27, N-[[[4-methyl-3-(benzoylamino)phenyl]amino]thioxomethyl]-3,4,5-Methoxy-benzamide] | 20 to 80 |
|  | COc1cc(C(=O)NC(=S)Nc2cccc(NC(=O)c3cccc4ccccc34)c2)cc(OC)c1OC [Compound 12, N-[[[3-(1-naphthoylamino)phenyl]amino]thioxomethyl]-3,4,5-methoxy-benzamide] | 20 to 80 |
| 0.01 to 1 | COc1cc(C(=O)NC(=S)Nc2cccc(NC(=O)Nc3ccc(-c4ccccc4)cc3)c2)cc(OC)c1OC [Compound 52, N-(3-(3-biphenyl-4-ylureido)phenylcarbamothioyl)-3,4,5-trimethoxybenzamide] | > 80 |
|  | COc1ccc(NC(=O)c2cc(NC(=S)NC(=O)c3cc(OC)c(OC)c(OC)c3)ccc2Cl)cc1 [Compound 40] | 20 to 80 |
| 1 to 3 | COc1cc(C(=O)NC(=S)Nc2cccc(-c3cn4ccsc4n3)c2)cc(OC)c1OC [Compound 58, N-(3-(imidazo[2,1-b]thiazol-6-yl)phenylcarbamothioyl)-3,4,5-trimethoxybenzamide] | > 80 |
|  | COc1cc(C(=O)NC(=S)Nc2ccc(C)c(-c3nc4ccccc4[nH]3)c2)cc(OC)c1OC [Compound 56, N-(3-(1H-benzo[d]imidazol-2-yl)-4-methylphenylcarbamothioyl)-3,4,5-trimethoxybenzamide] | 20 to 80 |
|  | COc1cc(C(=O)NC(=O)Nc2cccc(NC(=O)c3ccc4ccccc4c3)c2)cc(OC)c1OC [Compound 16, N-[[[3-(2-naphthoylamino)phenyl]amino]oxomethyl]-3,4,5-methoxy-benzamide] | 5 to 20 |
|  | O=C(NC(=S)Nc1cccc(NC(=O)c2ccccc2)c1)c1ccc2c(c1)OCCO2 [Compound 28, N-[[[3-(benzoylamino)phenyl]amino]thioxomethyl]-3,4-ethylenedioxo-benzamide] | 5 to 20 |
|  | COc1cc(C(=O)NC(=S)Nc2cc(Cl)cc(NC(=O)c3ccccc3)c2)cc(OC)c1OC [Compound 35, N-[[[5-chloro-3-(benzoylamino)phenyl]amino]thioxomethyl]-3,4,5-methoxy-benzamide] | 20 to 80 |
| 0.01 to 1 | COc1cc(C(=O)NC(=S)Nc2cccc(-c3cn4ccccc4n3)c2)cc(OC)c1OC [Compound 55, N-(3-(imidazo[1,2-a]pyridin-2-yl)phenylcarbamothioyl)-3,4,5-trimethoxybenzamide] | > 80 |
|  | COc1cc(C(=O)NC(=S)Nc2ccc(Cl)c(C(=O)Nc3ccc(Cl)cc3)c2)cc(OC)c1OC [Compound 43] | > 80 |
| 0.01 to 1 | COc1cc(C(=O)NC(=S)Nc2cccc(NC(=O)c3ccc(Cl)cc3)c2)cc(OC)c1OC [Compound 13, N-[[[3-(4-chloro-benzoylamino)phenyl]amino]thioxomethyl]-3,4,5-methoxy-benzamide] | > 80 |
|  | COc1cc(C(=O)NC(=O)Nc2cccc(NC(=O)c3ccc(Cl)cc3)c2)cc(OC)c1OC [Compound 47, N-[[[-3-(4-chloro-benzoylamino)phenyl]amino]oxomethyl]-3,4,5-methoxy-benzamide] | > 80 |
|  | COc1ccc(NC(=S)NC(=O)c2cc(OC)c(OC)c(OC)c2)cc1NC(=O)c1ccccc1 [Compound 26, N-[[[4-methoxy-3-(benzoylamino)phenyl]amino]thioxomethyl]-3,4,5-methoxy-benzamide] | 20 to 80 |
| 0.01 to 1 | CCOc1c(OC)cc(C(=O)NC(=S)Nc2cccc(NC(=O)c3ccccc3)c2)cc1OC [Compound 19, N-[[[3-(benzoylamino)phenyl]amino]thioxomethyl]-3,5-methoxy-4-ethoxy-benzamide] | > 80 |
| 0.01 to 1 | COc1cc(C(=O)NC(=O)Nc2cccc(-c3cc4ccccc4[nH]3)c2)cc(OC)c1OC [Compound 53, N-(3-(1H-indol-2-yl)phenylcarbamoyl)-3,4,5-trimethoxybenzamide] | > 80 |
|  | COc1cc(C(=O)NC(=O)Nc2ccc(Cl)c(NC(=O)c3ccccc3)c2)cc(OC)c1OC [Compound 33, N-[[[4-chloro-3-(benzoylamino)phenyl]amino]oxomethyl]-3,4,5-methoxy-benzamide] | 20 to 80 |
